In paper PMC2171590 (The Journal of Cell Biology, 2005):

What was measured:
[1] = biological target: GST-tagged Las17WCA (S. cerevisiae); assay: pull-down
Arp2/3 complex (yeast) [2] = biological target: Arp2/3 complex (yeast) (Saccharomyces cerevisiae, UniProt P32381+P47117, P47117:G358Y); assay: fluorescence increase titration, one-site fit; format: binding
Arp2/3 complex (yeast) [3] = biological target: Arp2/3 complex (yeast) (Saccharomyces cerevisiae, UniProt P32381+P47117, P32381:D10A); assay: fluorescence increase titration, one-site fit; format: binding
Arp2/3 complex (yeast) [4] = biological target: Arp2/3 complex (yeast) (Saccharomyces cerevisiae, UniProt P32381+P47117, P47117:D12A); assay: fluorescence increase titration, one-site fit; format: binding
Arp2/3 complex (yeast) [5] = biological target: Arp2/3 complex (yeast) (Saccharomyces cerevisiae, UniProt P32381+P47117); assay: fluorescence increase titration, one-site fit; format: binding
Arp2/3 complex (yeast) [6] = biological target: Arp2/3 complex (yeast) (Saccharomyces cerevisiae, UniProt P32381+P47117, P32381:Y309A); assay: fluorescence increase titration, one-site fit; format: binding
Arp2/3 complex (yeast) [7] = biological target: Arp2/3 complex (yeast) (Saccharomyces cerevisiae, UniProt P32381+P47117, P32381:G305Y); assay: fluorescence increase titration, one-site fit; format: binding
Arp2/3 complex (yeast) [8] = biological target: Arp2/3 complex (yeast) (Saccharomyces cerevisiae, UniProt P32381+P47117, P47117:F362A); assay: fluorescence increase titration, one-site fit; format: binding

Chain of GST-tagged Las17WCA (S. cerevisiae) (Q12446 whole entry): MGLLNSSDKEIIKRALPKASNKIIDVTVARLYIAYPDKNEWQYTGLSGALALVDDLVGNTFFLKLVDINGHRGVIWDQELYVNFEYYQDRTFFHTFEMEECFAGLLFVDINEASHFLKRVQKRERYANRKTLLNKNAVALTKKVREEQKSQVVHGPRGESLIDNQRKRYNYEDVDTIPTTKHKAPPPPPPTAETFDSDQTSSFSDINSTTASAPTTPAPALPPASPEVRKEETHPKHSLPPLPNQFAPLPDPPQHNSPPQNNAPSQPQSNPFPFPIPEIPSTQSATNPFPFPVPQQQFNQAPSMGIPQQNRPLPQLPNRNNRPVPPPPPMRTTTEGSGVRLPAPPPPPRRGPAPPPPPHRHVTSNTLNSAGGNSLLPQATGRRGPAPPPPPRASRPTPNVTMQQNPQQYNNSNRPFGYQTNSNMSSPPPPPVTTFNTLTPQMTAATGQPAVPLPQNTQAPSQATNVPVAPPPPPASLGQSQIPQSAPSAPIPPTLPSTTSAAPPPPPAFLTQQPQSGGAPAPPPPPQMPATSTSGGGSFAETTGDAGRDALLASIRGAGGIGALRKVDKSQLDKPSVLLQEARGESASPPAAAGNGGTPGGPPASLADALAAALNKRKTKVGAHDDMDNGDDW

arp2-G302Y Arp2/3 complex (from UniProt P47117 1-449; P38328 1-384; Q05933 1-178; P40518 1-154)
Kd [1]: 3.9 µM

arp3-G302Y Arp2/3 complex (from UniProt P32381 1-391; P38328 1-384; Q05933 1-178; P40518 1-154)
Kd [1]: 4.5 µM

wild-type yeast Arp2/3 complex (from UniProt P32381 1-391; P47117 1-449; P38328 1-384; Q05933 1-178; P40518 1-154)
Kd [1]: 4.5 µM

O=P(O)(O)OP(=O)(O)OP(=O)(O)OC[C@H]1O[C@@H](n2cnc3c2ncn2ccnc32)[C@H](O)[C@@H]1O [etheno-ATP]
Kd (Arp2/3 complex (yeast) [2]): 22 ± 4.4 µM
Kd (Arp2/3 complex (yeast) [3]): 2000 ± 100 nM
Kd (Arp2/3 complex (yeast) [4]): 34.5 ± 2.2 µM
Kd (Arp2/3 complex (yeast) [5]): 2300 ± 100 nM
Kd (Arp2/3 complex (yeast) [6]): 2400 ± 200 nM
Kd (Arp2/3 complex (yeast) [7]): 1800 ± 100 nM
Kd (Arp2/3 complex (yeast) [8]): 16.7 ± 4.2 µM
